Patent publication US20250114460A1, “NOVEL PLK1 DEGRADATION INDUCING COMPOUND” (UPPTHERA, INC., priority 2021, published 2025)

Experiments:
Type in all cases: cell-based
[1] = target: T1, PLK1 (Homo sapiens, UniProt P53350); experiment: Luciferase assay for PLK1 in HeLa LgBit (Plk1-HiBit KI) cell line; settings: 300 nM compound, luminescence after 9 hours
T1 construct: endogenous in cells; host or cells: HeLa LgBit (Plk1-HiBit KI): HeLa stably expressing LgBit, with a CRISPR/Cas9 knock-in of HiBit at the endogenous PLK1 locus
T1 sequence (P53350 whole entry): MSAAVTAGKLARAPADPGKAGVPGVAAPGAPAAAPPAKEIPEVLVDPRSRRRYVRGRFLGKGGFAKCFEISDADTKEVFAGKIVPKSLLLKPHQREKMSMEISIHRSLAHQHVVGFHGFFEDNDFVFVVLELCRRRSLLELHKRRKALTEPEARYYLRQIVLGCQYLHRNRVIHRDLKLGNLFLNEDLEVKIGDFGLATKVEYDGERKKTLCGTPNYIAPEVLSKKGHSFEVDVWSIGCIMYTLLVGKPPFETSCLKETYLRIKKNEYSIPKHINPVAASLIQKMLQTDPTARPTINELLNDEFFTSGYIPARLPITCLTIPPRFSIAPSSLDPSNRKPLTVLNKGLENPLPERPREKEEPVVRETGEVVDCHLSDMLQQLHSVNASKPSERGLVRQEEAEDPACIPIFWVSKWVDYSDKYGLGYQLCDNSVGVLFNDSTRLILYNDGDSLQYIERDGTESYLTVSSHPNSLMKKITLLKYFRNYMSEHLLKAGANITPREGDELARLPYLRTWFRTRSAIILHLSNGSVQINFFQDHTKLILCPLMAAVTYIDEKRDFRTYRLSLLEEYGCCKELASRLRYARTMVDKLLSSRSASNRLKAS
How it was run: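 HeLa cells stably expressing LgBit, with HiBit knocked in at the C-terminus of endogenous Plk1, released from a 24 h 2 mM thymidine block and grown 18 h. Endurazine added, then compound at 300 nM; luminescence tracked in real time, expressed as ratio to DMSO.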

[2] = tested on: NCI-H526 cell line; experiment: Cell viability assay for H526 cell (EZ-Cytox); settings: Homo sapiens, NCI-H526, 120 h; H526 cells, 5 days, 3000 nM to 0.46 nM
How it was run: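 NCI-H526 cells were exposed to compound in CO2 incubator culture for 5 days. Viability was read by EZ-Cytox absorbance at 450 nm after 3 min shaking, giving IC50 values.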

[3] = tested on: MRC-5 cell line; experiment: Cell viability assay for MRC-5 cell line (EZ-Cytox); settings: Homo sapiens, MRC5, 120 h; MRC-5 normal cell line, 5 days, 10000 nM to 1.52 nM; N.D. = no cytotoxicity until 10 μM; read-out: Activity: IC50 value of Exemplary Compound to MRC-5 cell line
Protocol: 4. Cell Viability Assay for MRC-5 Cell Line
(1) Culture of MRC-5 Cell Line
Passage of cultured cells was maintained within P15.
(2) Treatment of Compounds of the Present Invention
Then, it was cultured in 37° C.
(3) Cytotoxicity Experiment
CO2 incubator for 4 hours.

Activity: ratio of the luminescense value of each Exemplary Compound treatment group to DMSO treatment group [1] | Compound | IC50 [2] [µM] | IC50 [3] [µM]
++ (++<0.6) | COc1cc(C(=O)NC2CCN(C(=O)COc3cccc4c3C(=O)N(C3CCC(=O)NC3=O)C4=O)CC2)ccc1Nc1ncc2c(n1)N(C1CCCC1)CC(F)(F)C(=O)N2C (stereo not drawn) [Compound 38, 4-((9-cyclopentyl-7,7-difluoro-5-methyl-6-oxo-6,7,8,9-tetrahydro-5H-pyrimido[4,5-b][1,4]diazepin-2-yl)amino)-N-(1-(2-((2-(2,6-dioxopiperidin-3-yl)-1,3-dioxoisoindolin-4-yl)oxy)acetyl)piperidin-4-yl)-3-methoxybenzamide] | < 0.2 | > 10
++ (++<0.6) | COc1cc(C(=O)N2CCN(CCCN3CCN(c4ccc5c(c4)C(=O)N(C4CCC(=O)NC4=O)C5=O)CC3)CC2)ccc1Nc1ncc2c(n1)N(C1CCCC1)CC(F)(F)C(=O)N2C (stereo not drawn) [Compound 90, 5-(4-(3-(4-(4-((9-cyclopentyl-7,7-difluoro-5-methyl-6-oxo-6,7,8,9-tetrahydro-5H-pyrimido[4,5-b][1,4]diazepin-2-yl)amino)-3-methoxybenzoyl)piperazin-1-yl)propyl)piperazin-1-yl)-2-(2,6-dioxopiperidin-3-yl)isoindoline-1,3-dione] | < 0.4 | > 10
++ (++<0.6) | COc1cc(C(=O)NC2CCN(C(=O)CCN3CCN(c4cccc5c4C(=O)N(C4CCC(=O)NC4=O)C5=O)CC3)CC2)ccc1Nc1ncc2c(n1)N(C1CCCC1)CC(C)(C)C(=O)N2C (stereo not drawn) [Compound 121, 4-((9-cyclopentyl-5,7,7-trimethyl-6-oxo-6,7,8,9-tetrahydro-5H-pyrimido[4,5-b][1,4]diazepin-2-yl)amino)-N-(1-(3-(4-(2-(2,6-dioxopiperidin-3-yl)-1,3-dioxoisoindolin-4-yl)piperazin-1-yl)propanoyl)piperidin-4-yl)-3-methoxybenzamide] | < 0.2 | > 10
++ (++<0.6) | COc1cc(C(=O)NC2CCN(CCC3CCCN(c4cccc5c4C(=O)N(C4CCC(=O)NC4=O)C5=O)C3)CC2)ccc1Nc1ncc2c(n1)N(C1CCCC1)CC(F)(F)C(=O)N2C (stereo not drawn) [Compound 55, 4-((9-cyclopentyl-7,7-difluoro-5-methyl-6-oxo-6,7,8,9-tetrahydro-5H-pyrimido[4,5-b][1,4]diazepin-2-yl)amino)-N-(1-(2-(1-(2-(2,6-dioxopiperidin-3-yl)-1,3-dioxoisoindolin-4-yl)piperidin-3-yl)ethyl)piperidin-4-yl)-3-methoxybenzamide] | < 0.1 | 3.81
+++ (+++: <0.3) | COc1cc(C(=O)NC2CCN(C(=O)CCN3CCN(c4cccc5c4C(=O)N(C4CCC(=O)NC4=O)C5=O)CC3)CC2)ccc1Nc1ncc2c(n1)N(C1CCCC1)CC1(CC1)C(=O)N2C (stereo not drawn) [Compound 120, 4-((9′-cyclopentyl-5′-methyl-6′-oxo-5′,6′,8′,9′-tetrahydrospiro[cyclopropane-1,7′-pyrimido[4,5-b][1,4]diazepin]-2′-yl)amino)-N-(1-(3-(4-(2-(2,6-dioxopiperidin-3-yl)-1,3-dioxoisoindolin-4-yl)piperazin-1-yl)propanoyl)piperidin-4-yl)-3-methoxybenzamide] | < 0.05 | > 10
++ (++<0.6) | CN1C(=O)C(F)(F)CN(C2CCCC2)c2nc(Nc3ccc(C(=O)NC4CCN(C(=O)CCN5CCN(c6cccc7c6C(=O)N(C6CCC(=O)NC6=O)C7=O)CC5)CC4)cc3F)ncc21 (stereo not drawn) [Compound 118, 4-((9-cyclopentyl-7,7-difluoro-5-methyl-6-oxo-6,7,8,9-tetrahydro-5H-pyrimido[4,5-b][1,4]diazepin-2-yl)amino)-N-(1-(3-(4-(2-(2,6-dioxopiperidin-3-yl)-1,3-dioxoisoindolin-4-yl)piperazin-1-yl)propanoyl)piperidin-4-yl)-3-fluorobenzamide] | < 0.05 | > 10
+++ (+++: <0.3) | COc1cc(C(=O)NN2CCN(C(=O)CCC3CCN(c4cccc5c4C(=O)N(C4CCC(=O)NC4=O)C5=O)CC3)CC2)ccc1Nc1ncc2c(n1)N(C1CCCC1)CC(F)(F)C(=O)N2C (stereo not drawn) [Compound 76, 4-((9-cyclopentyl-7,7-difluoro-5-methyl-6-oxo-6,7,8,9-tetrahydro-5H-pyrimido[4,5-b][1,4]diazepin-2-yl)amino)-N-(4-(3-(1-(2-(2,6-dioxopiperidin-3-yl)-1,3-dioxoisoindolin-4-yl)piperidin-4-yl)propanoyl)piperazin-1-yl)-3-methoxybenzamide] | < 0.1 | > 10
++ (++<0.6) | COc1cc(C(=O)NC2CCN(C(=O)CCCNc3cccc4c3C(=O)N(C3CCC(=O)NC3=O)C4=O)CC2)ccc1Nc1ncc2c(n1)N(C1CCCC1)CC(F)(F)C(=O)N2C (stereo not drawn) [Compound 25, 4-((9-cyclopentyl-7,7-difluoro-5-methyl-6-oxo-6,7,8,9-tetrahydro-5H-pyrimido[4,5-b][1,4]diazepin-2-yl)amino)-N-(1-(4-((2-(2,6-dioxopiperidin-3-yl)-1,3-dioxoisoindolin-4-yl)amino)butanoyl)piperidin-4-yl)-3-methoxybenzamide] | < 0.05 | > 10
++ (++<0.6) | COc1cc(C(=O)N2CCN(CCN3CCN(c4ccc5c(c4)C(=O)N(C4CCC(=O)NC4=O)C5=O)CC3)CC2)ccc1Nc1ncc2c(n1)N(C1CCCC1)CC(F)(F)C(=O)N2C (stereo not drawn) [Compound 89, 5-(4-(2-(4-(4-((9-cyclopentyl-7,7-difluoro-5-methyl-6-oxo-6,7,8,9-tetrahydro-5H-pyrimido[4,5-b][1,4]diazepin-2-yl)amino)-3-methoxybenzoyl)piperazin-1-yl)ethyl)piperazin-1-yl)-2-(2,6-dioxopiperidin-3-yl)isoindoline-1,3-dione] | < 0.4 | > 10

Compound | Activity: ratio of the luminescense value of each Exemplary Compound treatment group to DMSO treatment group [1] | IC50 [2] [µM] | IC50 [3] [µM]
COc1cc(C(=O)N2CCC(N3CC4(CCN(c5cc6c(cc5F)C(=O)N(C5CCC(=O)NC5=O)C6=O)CC4)C3)CC2)ccc1Nc1ncc2c(n1)N(C(C)C)CC(F)(F)C(=O)N2C (stereo not drawn) [Compound 215, 5-(2-(1-(4-((7,7-difluoro-9-isopropyl-5-methyl-6-oxo-6,7,8,9-tetrahydro-5H-pyrimido[4,5-b][1,4]diazepin-2-yl)amino)-3-methoxybenzoyl)piperidin-4-yl)-2,7-diazaspiro[3.5]nonan-7-yl)-2-(2,6-dioxopiperidin-3-yl)-6-fluoroisoindoline-1,3-dione] | ++ (++<0.6) | < 0.4 | 16.2
COc1cc(C(=O)NN2CCC(N3CC4(CCN(c5cc6c(cc5F)C(=O)N(C5CCC(=O)NC5=O)C6=O)CC4)C3)CC2)ccc1Nc1ncc2c(n1)N(C(C)C)CC(F)(F)C(=O)N2C (stereo not drawn) [Compound 216, 4-((7,7-difluoro-9-isopropyl-5-methyl-6-oxo-6,7,8,9-tetrahydro-5H-pyrimido[4,5-b][1,4]diazepin-2-yl)amino)-N-(4-(7-(2-(2,6-dioxopiperidin-3-yl)-6-fluoro-1,3-dioxoisoindolin-5-yl)-2,7-diazaspiro[3.5]nonan-2-yl)piperidin-1-yl)-3-methoxybenzamide] | ++ (++<0.6) | < 0.2 | 27
